The values that follow come from ChEMBL document CHEMBL1158023, “Sideroxylonal C, a new inhibitor of human plasminogen activator inhibitor type-1, from the flowers of Eucalyptus albens” (J Nat Prod, 1999).

Usually IC50 stands for the midpoint of a concentration-inhibition curve. Read a low IC50 as greater potency.

Chain of Plasminogen activator inhibitor 1 (P05121 whole entry): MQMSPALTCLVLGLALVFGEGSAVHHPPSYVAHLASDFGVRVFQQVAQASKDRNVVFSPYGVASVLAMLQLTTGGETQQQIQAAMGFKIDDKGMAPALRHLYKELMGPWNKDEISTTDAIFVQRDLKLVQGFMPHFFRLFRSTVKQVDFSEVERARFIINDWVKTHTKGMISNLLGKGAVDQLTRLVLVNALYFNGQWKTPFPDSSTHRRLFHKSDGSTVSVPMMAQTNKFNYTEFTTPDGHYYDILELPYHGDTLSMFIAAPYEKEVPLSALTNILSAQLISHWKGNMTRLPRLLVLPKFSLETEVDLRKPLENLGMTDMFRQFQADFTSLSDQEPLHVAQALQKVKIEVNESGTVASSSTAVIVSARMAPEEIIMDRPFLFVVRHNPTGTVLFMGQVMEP

This experiment addresses Plasminogen activator inhibitor 1 (Homo sapiens, UniProt P05121). Put plainly: Inhibition of human PAI1 using tissue type plasminogen activator substrate by chromogenic absorbance at 405 nm.
The compound `CC(C)C[C@@H]1c2c(O)c(C=O)c(O)c(C=O)c2O[C@]2(C)C=C[C@@H](C(C)C)C[C@H]12` [EUGLOBAL IA2] showed an IC50 of 138 µM. The figure for `CC(C)CC(=O)c1c(O)c(C=O)c2c(c1O)C[C@H]1C[C@H](C(C)C)C=C[C@@]1(C)O2` [EUGLOBAL IIC] is 700 µM; for `CC(C)C[C@@H]1C[C@@]2(CC[C@@H]3C[C@H]2C3(C)C)Oc2c(C=O)c(O)c(C=O)c(O)c21` [ROBUSTADIAL A] it is 152 µM. Consider `CC(C)C[C@@H]1c2c(O)c(C=O)c(O)c(C=O)c2O[C@@H](c2c(O)c(C=O)c(O)c(C=O)c2O)[C@@H]1C(C)C` [SIDEROXYLONAL A], for which inhibition was half-maximal at 3.3 µM (IC50). The result for `CC(C)C[C@@H]1c2c(O)c(C=O)c(O)c(C=O)c2O[C@@H](c2c(O)c(C=O)c(O)c(C=O)c2O)[C@H]1C(C)C` [SIDEROXYLONAL B] reads 5.3 µM; that for `CC(C)C[C@H]1c2c(O)c(C=O)c(O)c(C=O)c2O[C@@H](c2c(O)c(C=O)c(O)c(C=O)c2O)[C@@H]1C(C)C` [SIDEROXYLONAL C], 4.7 µM.
